Usually melting point stands for the temperature, or range, at which the solid turns liquid. `COC(=O)c1ccc(NC(=O)c2c(-c3ccccc3)c(-c3ccc(F)cc3)n(CC[C@@H]3C[C@H](CC(=O)OC(C)(C)C)OC(C)(C)O3)c2C(C)C)cc1`: the melting point lay within 159 to 160 °C.

For `COC(=O)c1ccc(-c2ccc3nnn(Cc4cc5cccnc5cc4F)c3n2)cc1F`, the melting point is 213 to 215 °C. Regarding `N#Cc1ncccc1CCc1ccc(F)cc1`, the melting point is 48 to 49 °C. As for `CCc1ccc(Nc2c(C(=O)NOCCO)ccc(F)c2F)c(Cl)c1`, the figure is 142 to 145 °C; as for `NC(=O)C(c1ccccc1)c1ccccn1` (racemic), 134 °C; as for `N#CC1=C(C2CCCCC2)Nc2n[nH]cc2C1c1cccc2nonc12` (stereo not drawn), 210 °C. Consider `CCCCCCCCOC(=O)c1ccc(OC(=O)c2ccc(C(=O)Oc3ccc(C(=O)OCCCCCCCC)cc3)cc2)cc1`, for which the melting point was 108 to 110 °C. `Cn1cc(-c2cc(-c3cnc4[nH]ccc4c3)ccn2)n(-c2ccccc2)c1=O` showed a melting point of 264 °C. The same measure for `NP(N)(=O)Nc1ccccc1[N+](=O)[O-]`: 200 °C; for `CCCc1c(O)c(C(C)=O)cc(Cl)c1OCCCOc1ccc2ccc(OCC(=O)O)cc2c1C(C)=O`: 132 to 134 °C; for `Cc1cc2c(-c3ccccc3N)nc(N3CCNCC3)nc2s1`: 232 to 236 °C. `N#Cc1cnc2sc(-c3ccccc3)cc2c1Nc1cccc2cc[nH]c12`: the melting point was greater than 245 °C. As for `CN(C)C(=O)Sc1nc(-c2ccccc2)cn1-c1ccc([N+](=O)[O-])cn1`, the figure is 200 to 201 °C. `Cn1c(C(F)(F)F)cc(=O)n(-c2cc(OC(=O)Oc3ccccc3)c(Cl)cc2F)c1=O` showed a melting point of 112 to 115 °C. The same measure for `Cc1nc([C@H](Cc2ccccn2)N(C=O)c2cc3ccccc3[nH]2)n(C)c1-c1ccc(-n2ccnc2)cc1`: 156 to 157 °C; for `O=C(NCC1CC1)c1c(NC(=O)c2cc(C(F)(F)F)nn2-c2ncccc2Cl)c(Cl)cc2cn[nH]c12`: greater than 250 °C.

Consider `Cc1cc(C(=O)O)c(N)cc1Cl`, for which the melting point lay within 212 to 215 °C.

Take `NC(=O)C(CCN1CC[C@@H](OCc2cccc(Cl)c2)C1)(c1ccccc1)c1ccccc1`: the melting point lay within 91 to 93 °C. As for `C=CCc1c(OC)c(=O)[nH]c2cc(Cl)ccc2c1=O`, the figure is 135 to 136 °C. Consider `NS(=O)(=O)c1cccc(-c2noc(-c3cnn4c(C5CC5)cc(-c5ccc(C(F)(F)F)cc5)nc34)n2)c1`, for which the melting point came out at 277 °C. As for `Cc1nc(NC(=O)Nc2ccc(N3CCN(C(=O)Nc4cc(OCCO)ccc4Cl)CC3)nc2)sc1C`, the figure is 128 to 129 °C; as for `O=C1NC(=O)C(Nc2ccc(CCNCC(O)c3cccnc3)cc2)S1` (stereo not drawn), 46 to 48 °C. As for `C=Cc1cc(C(F)(F)F)ccc1-c1cc(Oc2cccc3sc(NC(C)=O)nc23)ncn1`, the figure is 234 to 237 °C; as for `Cc1cc(-c2ccc(Cl)cc2)nc2c(-c3nc(-c4ccc(S(N)(=O)=O)s4)no3)cnn12`, 253 °C. Molecule `CC(C#N)c1ccc(C(=O)c2ccc(Cl)cc2)n1C` (stereo not drawn) gave a melting point of 145 to 148 °C. The same measure for `CN1C(=O)C(c2cccc(OCc3ccccc3)c2)(c2cnn(CC(F)(F)F)c2)N=C1N` (stereo not drawn): 85 to 87 °C; for `O=C(N[C@@H](Cn1cccn1)C(=O)O)OCc1ccccc1`: 166 to 168 °C; for `c1ccc(-c2ccc(CCCN3CCN(c4ccccc4)CC3)o2)cc1`: 95 °C.

On to `O=C(NC1(C2CC2)CC1)c1c(NC(=O)c2cc(C(F)(F)F)nn2-c2ncccc2Cl)ccc2cn[nH]c12`, for which the melting point was in the range of 224 to 227 °C.

On to `O=C(CCCCSc1nc(-c2ccccc2)c(-c2ccccc2)[nH]1)NCCOCCO`, for which the melting point is 176 to 178 °C.

In the case of `Cn1nc(-c2ccc(Br)cc2)c2ccccc2c1=O`, the melting point fell in the range of 168 to 170 °C. The same measure for `COc1cccc(C23CCCC=C2C(=O)N(C)C(=O)C3)c1` (stereo not drawn): 139 to 141 °C; for `CCOC(=O)COCCCC(=CC(N)C(=O)O)CP(=O)(O)O` (stereo not drawn): 215 to 218 °C; for `COc1ccc(C2(CNC(=S)NCC(C)C)OCCO2)cc1`: 96 °C. The same measure for `CCCCCc1ccc(C#Cc2c3ccccc3c3ccc4c(C#Cc5ccc(CCCCC)cc5)c5ccccc5c5ccc2c3c45)cc1`: 256 to 257 °C; for `COc1cccc(C2C(CO)CC(=O)N2c2ccccc2)c1` (stereo not drawn): 123 to 126 °C.

As to `CC(C)COc1c(-c2ccc(S(C)(=O)=O)cc2)cnn(-c2ccc(F)c(F)c2)c1=O`, the melting point fell in the range of 116 to 117 °C. The same measure for `COc1c(C(C)(C)C)cc(C(C)=O)c(O)c1Br`: 69 to 71 °C. As for `COC(=O)NNC(=S)Cc1ccccc1`, the figure is 93.5 to 94 °C; as for `CC(C)(C)N1CC(=O)Nc2cccc(Cl)c21`, 198 °C; as for `Cn1c(-c2ccc(-c3ccccn3)cc2)c(C(=O)N2CCC(OCC(=O)O)CC2)c(=O)n1-c1ccc(C#N)cc1`, 156 to 159 °C. The same measure for `O=C1N(Cc2ccc(OC(F)(F)F)cc2)C(=NCC(F)(F)F)SCN1c1ccccc1`: 54 to 56 °C; for `COc1ccc(CNc2nc(OCc3ccccn3)ncc2C(=O)OCc2ccccn2)cc1Cl`: 115 to 120 °C; for `CC(C)(C)c1c(Cl)nc(Cl)nc1Cl`: 58 to 59 °C.

As to `O=C1NC(=O)C(Cc2ccc(OCCON=Cc3ccncc3)cc2)S1` (stereo not drawn), the melting point was determined as 221 °C. As for `Cc1oc(-c2ccccc2)nc1COc1cc(COc2ncccc2CO)on1`, the figure is 136 to 137 °C; as for `COc1ccccc1CN[C@H]1CCCN(CCCCCc2ccccc2)[C@H]1c1ccccc1` (relative stereo), 109 °C; as for `CN(C)CCNC(=O)N1CCC(Oc2ccccc2)C1` (stereo not drawn), 72 to 73 °C.

The molecule `Cc1noc(C)c1Cn1cc(NC(=O)c2ccccn2)cn1` yielded a melting point of 135 to 137 °C.

For `CC(c1ccc(F)cc1)n1nc(-c2ccc(F)cc2)c(-c2ccc(S(C)(=O)=O)cc2)cc1=O` (stereo not drawn), the melting point fell in the range of 185 to 186 °C. As for `O=c1[nH]c2cc(-c3ccccc3)nnc2c2ccccc12`, the figure is 340 to 342 °C; as for `CC(=O)OC1CSC(Oc2cc(-c3cncnc3)cnc2F)C(OC(C)=O)C1OC(C)=O` (stereo not drawn), 96 to 97 °C. As for `COc1c(N)cc(-c2c3ccccc3c(Br)c3sc(C)c(C)c23)cc1Br`, the figure is 198 to 200 °C.

Take `COC(=O)c1csc(-c2ccc([N+](=O)[O-])cc2)n1`: the melting point was 224 to 227 °C. Turning to `COCCn1cc(-c2ccccc2)n(C(C)=O)c1=O`, the melting point was 73 to 75 °C.

The molecule `Cc1c(C(=O)N[C@H](C)[C@](O)(Cn2cncn2)c2ccc(F)cc2F)cnn1-c1ccc(Cl)cc1` came in with a melting point of 154 to 155 °C. As for `Cc1[nH]c2cccc(/C=C/C(=O)OCc3ccccc3)c2c1Cn1ccnc1`, the figure is 207 to 208 °C; as for `O=C1C(CCO)Oc2ccccc2N1Cc1ccc([N+](=O)[O-])cc1` (stereo not drawn), 124 to 127 °C; as for `Cc1cc(C)c2cccc(OCc3c(Cl)ccc(S(=O)(=O)N4CCC[C@H]4C(=O)N4CCN(C(=O)c5cccc(C=NN)c5)CC4)c3Cl)c2n1`, 158 °C. The same measure for `OCC(O)COCc1nnc2n1-c1ccc(Cl)cc1C(c1ccccc1)=NC2` (stereo not drawn): 130 to 134 °C. As for `CC(=O)OC1(c2ccc3c(c2)OCO3)C(=O)N(Cc2ccc(Cl)cc2)c2ccccc21` (stereo not drawn), the figure is 146 to 148 °C. The molecule `COc1ccc2c(c1)C(=O)C(Cc1cccc(NS(=O)(=O)C(F)(F)F)c1)CO2` (stereo not drawn) registered a melting point of 114 to 116 °C. In turn, `O[C@@H](CNCCOc1ccc2cc(-c3ccon3)oc2c1)COc1ccccc1` gave a melting point of 107 to 110 °C. As for `CC(C)(C)NC(=O)c1cc(Cl)ccc1N`, the figure is 126 to 127 °C. The same measure for `CC(C)(C)OC(=O)N1CCC(ON=C(c2ccccc2)c2cc3ccncc3[nH]2)C1` (stereo not drawn): 80 to 82 °C. As for `CNC(=O)C=C1CSc2c(C(=O)OC(C)C)c(C)cn21`, the figure is 173 to 175 °C. `CN(C)C(=O)C(=O)c1c[nH]c2ccc(Br)cc12` returned a melting point of 189 to 190 °C.

`NC(=O)CNC(=O)c1cccc(-c2cccc3sc(Cc4cccc(C(F)(F)F)c4)nc23)c1` displayed a melting point of 130 to 131 °C. As for `O=C1C=C(O)CC(c2ccc3sccc3c2)C1` (stereo not drawn), the figure is 192 °C; as for `CCN(CC)c1ccc(-c2nc(-c3cc(OC)c(O)c(OC)c3)n(C(=O)NS(=O)(=O)c3ccc(C)cc3)c2-c2ccc(N(CC)CC)cc2)cc1`, 65 °C. With `Cc1cc(C)nc(NC(=O)NS(=O)(=O)N2CCCC2)n1`, the melting point was 180 to 181 °C. `Cc1n[nH]c2cc(-c3nn(C(C)c4oc5ccccc5c(=O)c4-c4cccc(F)c4)c4ncnc(N)c34)ccc12` (stereo not drawn) returned a melting point of 158 to 161 °C. As to `CC(S)C(=O)N1c2ccccc2CCC1C(=O)O` (stereo not drawn), the melting point fell in the range of 141 to 143 °C. As for `CCCn1nc2c(N)nc3ccccc3c2c1CCNC(=O)Nc1ccc(F)c(F)c1`, the figure is 211 to 212 °C; as for `CCN(CC)C1CCCCN(CC(=O)N2c3ccccc3C(=O)Nc3cccnc32)C1` (stereo not drawn), 222 to 224 °C. As for `CC(c1cccc(Cl)c1)(n1ccnc1)C1(O)C2CC3CC(C2)CC1C3` (stereo not drawn), the figure is 121 °C; as for `C=CCOc1ccccc1-c1nc2nc(SC)nnc2c(=O)[nH]1`, 238 to 239 °C; as for `COC(=O)c1c(O)c2cc(OCc3ccccc3)ccc2c(=O)n1CC(C)C`, 109 to 110 °C.

Consider `CN(c1cccc2cc(C3=NCC(CN4CCOCC4)S3)[nH]c12)S(=O)(=O)c1cccs1` (stereo not drawn), for which the melting point was 139 to 140 °C. As for `O=C1NC(c2ccccc2)c2cc(Cl)ccc2-n2nc(CO)cc21` (stereo not drawn), the figure is 260 to 262 °C. As for `CCOC(=O)C1=C(COC)NC(COC)=C(C(=O)OCC)C1c1ccc(SC)cc1`, the figure is 136 to 138 °C; as for `COC1=C(OC)C(=O)C2=C(CCC(CCOc3cc(OC)c(OC)c(OC)c3)CC2)C1=O`, 91 to 93 °C. The same measure for `CCN(CC)C(=O)c1c(C=O)ccnc1OC`: less than 50 °C.

The values above are taken from a melting point compilation (Tetko et al.; mined from patent text by program, amines drawn as free bases though some values may be those of a salt).
